In US20250320206A1, “STAT6 DEGRADERS” (Gilead Sciences, Inc., priority 2024, published 2025):

Experiments:
STAT6 = molecular target: T1, STAT6 (Homo sapiens, UniProt P42226); test: Stat6 Degrader Assay (HiBiT based, HeLa LgBiT clone 4.14); assay type: cell-based; details: HeLa LgBiT clone 4.14 HiBiT-STAT6, 4-24 h incubation; values given for compounds with >80% Emax; geometric mean; read-out: STAT6 degradation DC50
T1 construct: These cells express endogenous STAT6; host or cells: HeLa LgBiT clone 4.14
T1 sequence (P42226 1-847): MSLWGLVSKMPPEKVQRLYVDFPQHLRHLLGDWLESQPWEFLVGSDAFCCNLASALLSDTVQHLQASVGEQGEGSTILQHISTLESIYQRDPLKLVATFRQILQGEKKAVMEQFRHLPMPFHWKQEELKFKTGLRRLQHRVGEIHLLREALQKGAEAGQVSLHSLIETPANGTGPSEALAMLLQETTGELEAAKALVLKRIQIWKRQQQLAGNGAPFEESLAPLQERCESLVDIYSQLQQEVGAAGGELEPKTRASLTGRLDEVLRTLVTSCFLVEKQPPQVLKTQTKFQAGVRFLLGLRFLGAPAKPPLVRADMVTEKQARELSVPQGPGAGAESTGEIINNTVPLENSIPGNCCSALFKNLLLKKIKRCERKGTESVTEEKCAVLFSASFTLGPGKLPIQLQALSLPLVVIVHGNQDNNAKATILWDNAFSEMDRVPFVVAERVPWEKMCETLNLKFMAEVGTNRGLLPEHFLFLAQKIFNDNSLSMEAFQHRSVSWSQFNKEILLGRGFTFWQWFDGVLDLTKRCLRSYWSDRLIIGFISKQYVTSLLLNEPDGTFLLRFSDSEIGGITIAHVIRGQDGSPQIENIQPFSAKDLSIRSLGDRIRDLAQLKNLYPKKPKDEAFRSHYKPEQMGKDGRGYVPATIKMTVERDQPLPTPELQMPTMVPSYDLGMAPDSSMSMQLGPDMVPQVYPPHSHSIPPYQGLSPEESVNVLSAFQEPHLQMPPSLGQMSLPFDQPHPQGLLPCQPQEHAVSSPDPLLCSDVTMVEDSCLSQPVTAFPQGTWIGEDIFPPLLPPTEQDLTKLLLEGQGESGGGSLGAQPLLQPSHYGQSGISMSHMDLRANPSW
Outline: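 Luminescence from HiBiT-STAT6 complementing stably expressed LgBiT in HeLa clone 4.14 reports remaining STAT6 protein. Cells (5000/well) exposed to compound for 4-24 h at 37° C; read 0.5 h after Nano-Glo addition. 100% degradation window set with 50 μM terfenadine; percent degradation plotted against concentration.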

[1] = system: Eotaxin-3 release in human whole blood stimulated with IL-4; test: Human Whole Blood Eotaxin-3 Assay (IL-4 stimulated eotaxin-3 release); assay type: cell-based; details: IL-4 stimulation, 48 h, values given for compounds with >80% Emax, geometric mean
Outline: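 Eotaxin-3 (CCL26) release measured by MSD kit in plasma supernatant after 48 h IL-4 stimulation ([…]) of human whole blood. Compounds added in triplicate 4-fold dilutions 2 h before stimulation; 0.5% DMSO final, 37° C, 5% CO2.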

Row | SMILES | DC50 (STAT6) [nM] | EC50 [1] [nM]
1 | CNc1cc(=O)n(-c2ccnc3c2cc(CN2CCC(c4c(F)cc(C(=O)N5CCC(CN6CCN(Cc7ccc8c(c7)C(C)(C)C(=O)N8C7CCC(=O)NC7=O)C[C@@H]6C)CC5)cc4F)CC2)n3C)cc1F (stereo partly drawn) [Example 3u48, 3-(5-(((S)-4-((1-(3,5-difluoro-4-(1-((4-(5-fluoro-4-(methylamino)-2-oxopyridin-1 (2H)-yl)-1-methyl-1H-pyrrolo[2,3-b]pyridin-2-yl)methyl)piperidin-4-yl)benzoyl)piperidin-4-yl)methyl)-3-methylpiperazin-1-yl)methyl)-3,3-dimethyl-2-oxoindolin-1-yl)piperidine-2,6-dione] | 11.2 | 7.7
2 | CNc1ccn(-c2ccnc3c2cc([C@H](C)N2CC=C(c4c(C)cc(C(=O)N5CCC(CN6CCN(Cc7cc8c(cc7F)n(C7CCC(=O)NC7=O)c(=O)n8C7CC7)C[C@@H]6C)CC5)cc4F)CC2)n3C)c(=O)c1 (stereo partly drawn) [Example 3u166, 3-(3-cyclopropyl-6-fluoro-5-(((S)-4-((1-(3-fluoro-5-methyl-4-(1-((S)-1-(1-methyl-4-(4-(methylamino)-2-oxopyridin-1 (2H)-yl)-1H-pyrrolo[2,3-b]pyridin-2-yl)ethyl)-1,2,3,6-tetrahydropyridin-4-yl)benzoyl)piperidin-4-yl)methyl)-3-methylpiperazin-1-yl)methyl)-2-oxo-2,3-dihydro-1H-benzo[d]imidazol-1-yl)piperidine-2,6-dione] | 1.1 | 1.3
3 | CNc1ccn(-c2ccnc3c2cc(CN2CCC(c4c(F)cc(C(=O)N(C)c5ccc(C6CCN(Cc7ccc8c(c7)n(C)c(=O)n8C7CCC(=O)NC7=O)CC6)cc5)cc4F)CC2)n3C)c(=O)c1 (centres unmarked) [Example 3u244, N-(4-(1-((1-(2,6-dioxopiperidin-3-yl)-3-methyl-2-oxo-2,3-dihydro-1H-benzo[d]imidazol-5-yl)methyl)piperidin-4-yl)phenyl)-3,5-difluoro-N-methyl-4-(1-((1-methyl-4-(4-(methylamino)-2-oxopyridin-1 (2H)-yl)-1H-pyrrolo[2,3-b]pyridin-2-yl)methyl)piperidin-4-yl)benzamide] | 0.1 | 0.3
4 | Cc1cc(C(=O)N2CCC(CN3CCN(Cc4ccc5c(c4)n(C4CC4)c(=O)n5C4CCC(=O)NC4=O)CC3)CC2)cc(F)c1C1=CCN([C@@H](C)c2cc3c(-n4ccc5c(c4=O)CCN5)ccnc3n2C)CC1 (stereo partly drawn) [Example 3u140, 3-(3-cyclopropyl-5-((4-((1-(3-fluoro-5-methyl-4-(1-((S)-1-(1-methyl-4-(4-oxo-1,2,3,4-tetrahydro-5H-pyrrolo[3,2-c]pyridin-5-yl)-1H-pyrrolo[2,3-b]pyridin-2-yl)ethyl)-1,2,3,6-tetrahydropyridin-4-yl)benzoyl)piperidin-4-yl)methyl)piperazin-1-yl)methyl)-2-oxo-2,3-dihydro-1H-benzo[d]imidazol-1-yl)piperidine-2,6-dione] | 1.4 | 1
5 | CNc1ccn(-c2ccnc3c2cc([C@H](C)N2CC=C(c4c(C)cc(C(=O)N5CCC(CN6CCN(Cc7ccc8c(c7)n(C)c(=O)n8C7CCC(=O)NC7=O)CC6)CC5)cc4F)CC2)n3C)c(=O)c1 (stereo partly drawn) [Example 3u155, 3-(5-((4-((1-(3-fluoro-5-methyl-4-(1-((S)-1-(1-methyl-4-(4-(methylamino)-2-oxopyridin-1 (2H)-yl)-1H-pyrrolo[2,3-b]pyridin-2-yl)ethyl)-1,2,3,6-tetrahydropyridin-4-yl)benzoyl)piperidin-4-yl)methyl)piperazin-1-yl)methyl)-3-methyl-2-oxo-2,3-dihydro-1H-benzo[d]imidazol-1-yl)piperidine-2,6-dione] | 0.3 | 0.5
6 | CNc1ccn(-c2ccnc3c2cc(CN2CC=C(c4c(C)cc(C(=O)N5CCC(CN6CCN(Cc7ccc8c(c7)C(C)(C)C(=O)N8[C@H]7CCC(=O)NC7=O)C[C@@H]6C)CC5)cc4F)CC2)n3C)c(=O)c1 (single isomer, unassigned) [Example 3u179] | 6.1 | 12.4
7 | CNc1cc(=O)n(-c2ccnc3c2cc([C@H](C)N2CC=C(c4c(C)cc(C(=O)N5CCC(CN6CCN(c7ccc8c(c7)C7(CC7)C(=O)N8[C@H]7CCC(=O)NC7=O)CC6)CC5)cc4F)CC2)n3C)cc1F (single isomer, unassigned) [Example 3u291] | 5.7 | 21.7
8 | CNc1ccn(-c2ccnc3c2cc(CN2CCC(c4c(F)cc(C(=O)N5CCC(CN6CCN(c7ccc8c(c7)C7(CC7)C(=O)N8C7CCC(=O)NC7=O)CC6)CC5)cc4F)CC2)n3C)c(=O)c1 (centres unmarked) [Example 3u149, 3-(5′-(4-((1-(3,5-difluoro-4-(1-((1-methyl-4-(4-(methylamino)-2-oxopyridin-1 (2H)-yl)-1H-pyrrolo[2,3-b]pyridin-2-yl)methyl)piperidin-4-yl)benzoyl)piperidin-4-yl)methyl)piperazin-1-yl)-2′-oxospiro[cyclopropane-1,3′-indolin]-1′-yl)piperidine-2,6-dione] | 33.8 | 27.6
9 | CNc1cc(=O)n(-c2ccnc3c2cc(CN2CC=C(c4c(F)cc(C(=O)N5CCC(CN6CCN(Cc7ccc8c(c7)C(C)(C)C(=O)N8[C@@H]7CCC(=O)NC7=O)C[C@@H]6C)CC5)cc4F)CC2)n3C)cc1F (single isomer, unassigned) [Example 3u79] | 15.4 | 107
10 | CNc1ccn(-c2ccnc3c2cc([C@H](C)N2CCC(c4c(F)cc(C(=O)N5CCC(CN6CCN(Cc7ccc8c(c7)C(C)(C)C(=O)N8[C@@H]7CCC(=O)NC7=O)C[C@@H]6C)CC5)cc4F)CC2)n3C)c(=O)c1 (single isomer, unassigned) [Example 3u82] | 1.1 | 1.1
11 | CNc1ccn(-c2ccnc3c2cc([C@H](C)N2CC=C(c4c(C)cc(C(=O)N5CCC(CN6CCN(Cc7cc8c(cc7F)N([C@@H]7CCC(=O)NC7=O)C(=O)C8(C)C)C[C@@H]6C)CC5)cc4F)CC2)n3C)c(=O)c1 (single isomer, unassigned) [Example 3u183] | 5.9 | 8
12 | CNc1ccn(-c2ccnc3c2cc([C@H](C)N2CC=C(c4c(C)cc(C(=O)N5CCC(CN6CCN(Cc7ccc8c(c7)C(C)(C)C(=O)N8[C@H]7CCC(=O)NC7=O)C[C@@H]6C)CC5)cc4F)CC2)n3C)c(=O)c1 (single isomer, unassigned) [Example 3u176] | 2.3 | 9.8
13 | CNc1cc(=O)n(-c2ccnc3c2cc([C@H](C)N2CC=C(c4c(C)cc(C(=O)N(C)c5ccc(N6CCC(Cc7ccc8c(c7)n(C)c(=O)n8[C@H]7CCC(=O)NC7=O)CC6)nc5)cc4F)CC2)n3C)cc1F (single isomer, unassigned) [Example 3u242] | 0.2 | 0.2
14 | CNc1cc(=O)n(-c2ccnc3c2cc([C@H](C)N2CC=C(c4c(C)cc(C(=O)N(C)c5ccc(C6CCN(Cc7ccc8c(c7)C7(CC7)C(=O)N8C7CCC(=O)NC7=O)CC6)cc5)cc4F)CC2)n3C)cc1F (stereo partly drawn) [Example 3u236, N-(4-(1-((1′-(2,6-dioxopiperidin-3-yl)-2′-oxospiro[cyclopropane-1,3′-indolin]-5′-yl)methyl)piperidin-4-yl)phenyl)-3-fluoro-4-(1-((S)-1-(4-(5-fluoro-4-(methylamino)-2-oxopyridin-1 (2H)-yl)-1-methyl-1H-pyrrolo[2,3-b]pyridin-2-yl)ethyl)-1,2,3,6-tetrahydropyridin-4-yl)-N,5-dimethylbenzamide] | 0.1 | 0.9
15 | Cc1cc(C(=O)N2CCC(CN3CCN(Cc4ccc5c(c4)n(C)c(=O)n5[C@@H]4CCC(=O)NC4=O)C[C@@H]3C)CC2)cc(F)c1C1=CCN(Cc2cc3c(-n4ccc5c(c4=O)CCN5)ccnc3n2C)CC1 (single isomer, unassigned) [Example 3u25] | 1.3 | 1
16 | CNc1ccn(-c2ccnc3c2cc([C@H](C)N2CC=C(c4c(C)cc(C(=O)N5CCC(CN6CCN(Cc7ccc8c(c7)n(C)c(=O)n8C7CCC(=O)NC7=O)C[C@@H]6C)CC5)cc4F)CC2)n3C)c(=O)c1 (stereo partly drawn) [Example 3u32, 3-(5-(((S)-4-((1-(3-fluoro-5-methyl-4-(1-((S)-1-(1-methyl-4-(4-(methylamino)-2-oxopyridin-1 (2H)-yl)-1H-pyrrolo[2,3-b]pyridin-2-yl)ethyl)-1,2,3,6-tetrahydropyridin-4-yl)benzoyl)-piperidin-4-yl)methyl)-3-methylpiperazin-1-yl)methyl)-3-methyl-2-oxo-2,3-dihydro-1H-benzo[d]-imidazol-1-yl)piperidine-2,6-dione] | 0.2 | 0.3
